Data reported in EP2533787B1, “USE OF ISORHAMNETIN TRIGLYCOSIDES” (Dr. Willmar Schwabe GmbH & Co. KG, priority 2010, dated 2011).
Marks after values point to notes of the source that are not given here.

Tests used:
Mäuse = assay: Light/dark box test ("Hell-Dunkel-Box"), frequency of compartment changes; assay type: in vivo; settings: for Anzahl der Feldwechsel im Vergleich zur Vehikel-Kontrolle / Wechselhäufigkeit in der "Hell-Dunkel-Box": single dose; for Anzahl der Feldwechsel im Vergleich zur Vehikel-Kontrolle: tested after 60 min, observed 3 min; for Erkundungsverhalten ("exploratory behavior"): oral application in mice; for Erkundungsverhalten ("exploratory behavior") / Wechselhäufigkeit in der "Hell-Dunkel-Box": result in words; for Wechselhäufigkeit in der "Hell-Dunkel-Box": oral
From the text: Die aktivitätssteigernde Wirkung der Isorhamnetintriglycoside 2, 3 und 4 wurde an Versuchstieren im sogenannten "Hell-Dunkel-Box" System getestet.
Das Prinzip des verwendeten Testsystems beruht darauf, dass Mäuse einem Verhaltensparadigma ausgesetzt werden, das zwei gegensätzliche Verhaltensmuster aktiviert. Die Box besteht aus zwei Kompartimenten von denen ein kleinerer dunkler Teil von einem hellen und größeren Teil durch eine Wand getrennt wird. In der Mitte der Wand befindet sich eine kleine Öffnung, die es dem Versuchstier ermöglicht zwischen den beiden Kompartimenten zu wechseln. Der Versuch beginnt mit dem Einsetzen der Maus in das helle Feld. Das angeborene Dunkelpräferenzverhalten führt dazu, dass die Tiere nach einer kurzen Latenzzeit in das dunkle -sichere Kompartiment wechseln. Nach kurzer Zeit führt aber das ebenso stark ausgeprägte Neugierverhalten (Erkundungsverhalten) dazu, dass die Mäuse wieder in das helle Kompartiment wechseln. Somit stehen zwei angeborene Verhaltensweisen, nämlich die Dunkelpräferenz (Vermutlich als Schutz vor Beutegreifern) und das Erkundungsverhalten (wichtig für Nahrungssuche, Partnersuche) im Konflikt, die für eine Dauer von 3 Minuten aufgezeichnet werden. Arzneimittel, die beruhigende pharmakologische Effekte haben, führen zu einer Verminderung der Wechselhäufigkeit zwischen den Kompartimenten, während Arzneimittel mit stimulierenden Aktivitäten die Wechselhäufigkeit steigern. Die Wechselhäufigkeit ist somit ein Index für aktivitätsgesteuertes Erkundungsverhalten als Zeichen einer Habituation (M. Bourin, and M. Hascoet, "The mouse light/dark box test", Eur. J. Pharmacol. 463 (2003) 55 - 65). Die Versuchsanordnung betrachtet somit Verhaltensparameter, die geeignet sind das Maß an Aktivität zu messen und zu bewerten.
Um die aktivitätssteigernden Effekte der Isorhamnetintriglycoside 2, 3 und 4 zu testen wurden Mäuse einmalig mit verschieden hohen Dosierungen der Flavone behandelt. Zum Vergleich wurden einige Tiere entweder mit dem sedierenden Benzodiazepin Lorazepam oder mit dem aktivitätssteigernden Präparat Methamphetamin oder mit einer wirkungslosen Kontrolllösung behandelt. Nach 60 Minuten wurden die Tiere in das helle Kompartiment der "Hell-Dunkel-Box" gesetzt und über einen Zeitraum von 3 Minuten beobachtet. Als Maß der Aktivität wurde die Häufigkeit der Feldwechsel gemessen. […] Tabelle 2: Wirkung der Isorhamnetintriglycoside 2 und 3 im Vergleich zum Anxiolytikum Lorazepam. Gemessen wird die Anzahl der Feldwechsel im Vergleich zur Vehikel-Kontrolle.

[1] = system: Hippocampus Schnittpräparaten; assay: Long-term potentiation (LTP) in hippocampal slice preparations, POP spikes; assay type: cell-based, Wistar-Ratten; settings: result in words; for Langzeitpotenzierung: rat brain slice preparations, compared with buffer solution; for Reizantwort nach LTP-Stimulation: size of POP spikes after repeated LTP induction, compared with solvent
From the text: Um den Einfluss der Isorhamnetintriglycoside 2 und 4 auf mentale Funktionen zu testen wurde die Induktion der sogenannten Langzeitpotenzierung (LTP) verwendet. In Hirnschnitt-Präparaten von Wirbeltieren dient LTP als zelluläres Modell für Lernvorgänge, vor allem im Arbeitsgedächtnis (T. V. P. Bliss, and G. L. Collingridge, "A synaptic model of memory: Long-term potentiation in the hippocampus", Nature 361 (1993) 31 - 39). Durch wiederholte Reizung von Neuronen wird eine langandauernde Verstärkung der synaptischen Übertragung induziert, die durch eine Stabilisierung oder Aktivierung sogenannter ruhender Synapsen ("silent synapses) zu einer Neubildung von Verschaltungsmustern zustande kommt (Lernen). Die am besten untersuchte Region des Gehirns für LTP Messungen ist der Hippocampus, der für die Verarbeitung von Lernvorgängen eine zentrale Rolle spielt, allerdings findet LTP auch in anderen Hirnregionen statt (G. A. Kerchner, and R.A. Nicoll, "Silent synapses and the emergence of a postsynaptic mechanism for LTP", Nat. Rev. Neurosci. 9 (2008) 813 - 825). Bei Ratten und anderen Nagern ist die Langzeitpotenzierung insbesondere mit der Ausbildung des räumlichen Lernens assoziiert (J. R. Whitlock, A. J. Heynen, M. G. Shuler, and M. F. Bear, "Learning induced long-term potentiation in the hippocampus", Science 313 (2006) 1093 - 1097).
Die Experimente wurden an Hippocampus Schnittpräparaten von 8-12 Wochen alten weiblichen Wistar-Ratten durchgeführt. Die Hirnschnitte werden bei 35°C in einer Messkammer gehalten und mit einer Nährlösung perfundiert. Glasmikroelektroden werden im dendritischen Bereich des Stratum pyramidale (CA1) platziert um "Population Spikes" (POP-Spikes) zu registrieren. Die Schaffer-Kollateralen werden mit bipolaren Reizelektroden aus Platin-Draht stimuliert und die resultierenden Aktionspotentiale (POP Spikes) gemessen. Der eigentliche Versuch beginnt nach einer Äquilibrierungszeit von 60 Minuten in welcher die Hirnschnitte nicht manipuliert werden. Anschließend werden die Elektroden platziert und begonnen die Schaffer Kollateralen mit steigender Stromstärke zu stimulieren. Nach Erreichen der maximalen Reizantwort wird die Stromstärke so reduziert, dass nur noch 50% der maximal möglichen Reizstärke erreicht werden. Dadurch kann im späteren Versuch überprüft werden ob eine Verstärkung der Reizantwort möglich ist. Anschließend wird alle 10 Sekunden mit der submaximalen Reizstärke stimuliert und die POP Spikes registriert. Die erste LTP-Induktion beginnt mit einer repetitiven Reizung (100 Hz für 1 Sekunde). Der 1. Stimulation folgt die erneute Einzelstimulation (alle 10 Sekunden ein submaximaler Reiz) für zehn Minuten. Diese erste Stimulation dient der Überprüfung, ob der Hirnschnitt eine Reizantwort auf die LTP-Induktion zeigt. […]

O=C1Nc2ccc(Cl)cc2C(c2ccccc2Cl)=NC1O (centres unmarked) [Lorazepam]
Anzahl der Feldwechsel im Vergleich zur Vehikel-Kontrolle (Mäuse; 0,3 mg/kg po): -46 % der Kontrolle

CNC(C)Cc1ccccc1 (centres unmarked) [Methamphetamin]
Wechsel Anzahl (Mäuse; 0,3 mg/kg peroral): 7,5 ± 2,1
Wechsel Prozent der Kontrolle (Mäuse; 0,3 mg/kg peroral): +7%
Wechsel Anzahl (Mäuse; 1,0 mg/kg peroral): 10,6 ± 1,6
Wechsel Prozent der Kontrolle (Mäuse; 1,0 mg/kg peroral): +51%
Wechsel Anzahl (Mäuse; 3,0 mg/kg peroral): 10,9 ± 3,3
Wechsel Prozent der Kontrolle (Mäuse; 3,0 mg/kg peroral): +56%
Wechsel Anzahl (Mäuse; 10,0 mg/kg peroral): 0,6 ± 1,2
Wechsel Prozent der Kontrolle (Mäuse; 10,0 mg/kg peroral): -91%

COc1cc(-c2oc3cc(O)cc(O)c3c(=O)c2O[C@@H]2O[C@H](CO[C@@H]3O[C@@H](C)[C@H](O)[C@@H](O)[C@H]3O)[C@H](O)[C@H](O)[C@H]2O[C@@H]2OC[C@@H](O)[C@H](O)[C@H]2O)ccc1O [Verbindung 2, 3-[(O-6-Deoxy-α-L-mannopyranosyl-(1→6)-O-[ß-D-xylopyranosyl-(1→2)]-ß-D-galactopyranosyl)oxy]-5,7-dihydroxy-2-(4-hydroxy-3-methoxy-phenyl)-4H-1-benzopyran-4-on]
Anzahl der Feldwechsel im Vergleich zur Vehikel-Kontrolle (Mäuse; 10 mg/kg po): +100 # % der Kontrolle
Anzahl der Feldwechsel im Vergleich zur Vehikel-Kontrolle (Mäuse; 30 mg/kg po): +38 % der Kontrolle
Erkundungsverhalten ("exploratory behavior") (Mäuse): deutlichen, dosisabhängigen und statistisch signifikantem Ansteigen des Erkundungsverhaltens
Wechselhäufigkeit in der "Hell-Dunkel-Box" (Mäuse; 30 mg/kg): geht dieser Effekt verloren
Wechselhäufigkeit in der "Hell-Dunkel-Box" (Mäuse; 3 und 10 mg/kg): deutlichen, signifikanten Steigerung der Wechselhäufigkeit
Langzeitpotenzierung [1]: deutlich gesteigert
Reizantwort nach LTP-Stimulation [1]: deutliche Steigerung der Reizantwort

COc1cc(-c2oc3cc(O)cc(O)c3c(=O)c2O[C@@H]2O[C@H](CO[C@@H]3O[C@@H](C)[C@H](O[C@@H]4O[C@@H](C)[C@H](O)[C@@H](O)[C@H]4O)[C@@H](O)[C@H]3O)[C@@H](O)[C@H](O)[C@H]2O)ccc1O [Verbindung 3, 3-[(O-6-Deoxy-α-L-mannopyranosyl-(1→4)-O-6-deoxy-α-L-mannopyranosyl-(1→6)-ß-D-glucopyranosyl)oxy]-5,7-dihydroxy-2-(4-hydroxy-3-methoxyphenyl)-4H-1-benzopyran-4-on]
Anzahl der Feldwechsel im Vergleich zur Vehikel-Kontrolle (Mäuse; 3 mg/kg po): +15 % der Kontrolle
Erkundungsverhalten ("exploratory behavior") (Mäuse): deutlichen, dosisabhängigen und statistisch signifikantem Ansteigen des Erkundungsverhaltens

COc1cc(-c2oc3cc(O)cc(O)c3c(=O)c2O[C@@H]2O[C@H](CO[C@@H]3O[C@@H](C)[C@H](O)[C@@H](O)[C@H]3O)[C@@H](O)[C@H](O)[C@H]2O[C@@H]2OC[C@@H](O)[C@H](O)[C@H]2O)ccc1O [Verbindung 4, 3-[(O-6-Deoxy-α-L-mannopyranosyl-(1→6)-O-[ß-D-xylopyranosyl-(1→2)]-ß-D-glucopyranosyl)oxy]-5,7-dihydroxy-2-(4-hydroxy-3-methoxyphenyl)-4H-1-benzopyran-4-on]
Langzeitpotenzierung [1]: deutlich gesteigert
Reizantwort nach LTP-Stimulation [1]: deutliche Steigerung der Reizantwort
